Experimental data: patent US20250320193A1, “OXOISOINDOLINYL SUBSTITUTED PIPERIDINEDIONE DERIVATIVE AND USE THEREOF” (GLUETACS THERAPEUTICS (SHANGHAI) CO., LTD., priority 2022, published 2025)

How the values were obtained:
[1] = target: IKZF3 (Homo sapiens (Human), UniProt Q96SW2+Q9UKT9); experiment: Western blot, substrate protein expression in hPBMC: IKZF3; type: cell-based; details: hPBMC, compound 500 nM, 24 hours, Western blot
Procedure, shortened: (§1)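 hPBMC, 1×10^6 cells/mL, 24 h compound exposure; RIPA lysis, BCA protein assay, SDS-PAGE, NC membrane immunoblot. Densitometry vs internal control → % protein remaining; degradation % = 100% − remaining; DC50 = conc. at 50% of DMSO band signal.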

[2] = target: IKZF1 (Homo sapiens (Human), UniProt Q13422+Q96SW2); experiment: Western blot, substrate protein expression in hPBMC: IKZF1; type: cell-based; details: hPBMC, compound 500 nM, 24 hours, Western blot
Procedure, shortened: as §1

[3] = target: human Cereblon WT GST-tagged protein (Homo sapiens (Human), UniProt Q96SW2); experiment: CRBN-binding affinity, HTRF (CEREBLON BINDING kit, CISBIO); details: HTRF inhibitory activity
Procedure, shortened: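 Compounds were mixed with GST-tagged human Cereblon WT protein, then with Thalidomide-Red tracer and GST Eu antibody, and binding was read by HTRF. Inhibition rate was calculated from 620 nm emission relative to blank control wells (no protein) and solvent control wells.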

[4] = target: GSPT1 (Homo sapiens (Human), UniProt P15170+Q96SW2); experiment: Western blot, substrate protein expression in hPBMC: GSPT1; type: cell-based; details: hPBMC, compound 500 nM, 24 hours, Western blot
Procedure, shortened: as §1

[5] = tested on: MM.1S cells (human multiple myeloma cells); experiment: Tumor cell proliferation inhibition, CCK-8; type: cell-based; details: MM1.S, MM.1S cells, CCK-8, read-out: inhibitory activity (IC50, nM) MM.1S
Description: (§2) The tumor cells used herein were cultured in a cell culture medium listed in table 2 at 37° C. in an incubator with 5% CO2. Prior to experimentation, all cells used were correctly identified by STR profiling, and tested negative for mycoplasma through routine screenings.
(§3) IC50 values of the compounds of the present disclosure (including the compounds in Table 1 and the Examples 1-305 compounds) were measured using the Meilun Cell Counting Kit-8 kit from Dalian Meilun Biotech Co., Ltd. Assay details are as follows: tumor cells were seeded in a 96-well plate at a density listed in Table 5. After 24 h, 100 μL of the inoculated cells were treated with 0.5 μL of the compounds of the present disclosure (including the compounds in Table 1 and the Examples 1-305 compounds) at 10 different successively decreasing concentrations (starting at the highest concentration of 10 μM; 5-fold serial dilutions). After the cells were treated with the compounds of the present disclosure for a period of time, the cell viability detection reagent was added to the culture medium for cell viability assessment according to the instructions provided with the CCK-8 kit. […] The growth inhibition of the compounds of the present disclosure on cells was plotted by Prism Graphpad software, and the IC50 values of the compounds of the present disclosure were calculated therefrom.

[6] = tested on: MDA-MB-231 cells (human breast adenocarcinoma cells); experiment: Tumor cell proliferation inhibition, CCK-8; type: cell-based; details: MDA-MB-231 cells, CCK-8, read-out: inhibitory activity (IC50, nM) MDA-MB-231
Description: as §2, §3

[7] = tested on: H146 cells (human small cell lung carcinoma cells); experiment: Tumor cell proliferation inhibition, CCK-8; type: cell-based; details: NCI-H146, H146 cells, CCK-8, read-out: inhibitory activity (IC50, nM) H146
Description: as §2, §3

[8] = tested on: TMD8 cells (human diffuse large B-cell lymphoma cells); experiment: Tumor cell proliferation inhibition, CCK-8; type: cell-based; details: TMD8 cells, CCK-8, read-out: inhibitory activity (IC50, nM) TMD8
Description: as §2, §3

human Cereblon WT GST-tagged protein, sequence (Q96SW2 whole entry): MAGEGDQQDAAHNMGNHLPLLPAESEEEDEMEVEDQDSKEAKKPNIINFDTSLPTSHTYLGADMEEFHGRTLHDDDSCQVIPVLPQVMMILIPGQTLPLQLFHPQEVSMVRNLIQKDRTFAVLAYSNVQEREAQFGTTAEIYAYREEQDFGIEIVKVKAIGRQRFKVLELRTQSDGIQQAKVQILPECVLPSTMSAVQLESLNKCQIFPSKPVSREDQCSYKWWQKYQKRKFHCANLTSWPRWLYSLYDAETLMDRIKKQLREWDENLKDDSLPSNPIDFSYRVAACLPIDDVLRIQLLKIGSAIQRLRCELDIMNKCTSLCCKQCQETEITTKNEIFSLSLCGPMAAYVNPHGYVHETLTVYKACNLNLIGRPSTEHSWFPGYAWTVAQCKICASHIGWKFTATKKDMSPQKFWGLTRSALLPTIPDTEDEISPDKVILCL
IKZF3, sequence (Q9UKT9 whole entry): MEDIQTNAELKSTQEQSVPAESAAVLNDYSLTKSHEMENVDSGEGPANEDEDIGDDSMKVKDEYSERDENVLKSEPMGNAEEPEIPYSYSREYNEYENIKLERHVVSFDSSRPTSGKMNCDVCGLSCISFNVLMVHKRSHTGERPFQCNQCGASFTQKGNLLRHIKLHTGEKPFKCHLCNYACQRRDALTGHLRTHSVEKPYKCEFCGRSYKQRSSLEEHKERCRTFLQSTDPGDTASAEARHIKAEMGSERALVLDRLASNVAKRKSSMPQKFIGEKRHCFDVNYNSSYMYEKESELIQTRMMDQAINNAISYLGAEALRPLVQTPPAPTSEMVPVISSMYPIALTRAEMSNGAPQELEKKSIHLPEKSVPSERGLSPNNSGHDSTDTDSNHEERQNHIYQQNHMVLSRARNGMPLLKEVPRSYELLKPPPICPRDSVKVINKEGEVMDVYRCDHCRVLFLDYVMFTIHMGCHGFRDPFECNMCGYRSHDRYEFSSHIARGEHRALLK
IKZF3, sequence (Q96SW2 whole entry): as the sequence (Q96SW2 whole entry) above
IKZF3, sequence (Q16531 whole entry partner): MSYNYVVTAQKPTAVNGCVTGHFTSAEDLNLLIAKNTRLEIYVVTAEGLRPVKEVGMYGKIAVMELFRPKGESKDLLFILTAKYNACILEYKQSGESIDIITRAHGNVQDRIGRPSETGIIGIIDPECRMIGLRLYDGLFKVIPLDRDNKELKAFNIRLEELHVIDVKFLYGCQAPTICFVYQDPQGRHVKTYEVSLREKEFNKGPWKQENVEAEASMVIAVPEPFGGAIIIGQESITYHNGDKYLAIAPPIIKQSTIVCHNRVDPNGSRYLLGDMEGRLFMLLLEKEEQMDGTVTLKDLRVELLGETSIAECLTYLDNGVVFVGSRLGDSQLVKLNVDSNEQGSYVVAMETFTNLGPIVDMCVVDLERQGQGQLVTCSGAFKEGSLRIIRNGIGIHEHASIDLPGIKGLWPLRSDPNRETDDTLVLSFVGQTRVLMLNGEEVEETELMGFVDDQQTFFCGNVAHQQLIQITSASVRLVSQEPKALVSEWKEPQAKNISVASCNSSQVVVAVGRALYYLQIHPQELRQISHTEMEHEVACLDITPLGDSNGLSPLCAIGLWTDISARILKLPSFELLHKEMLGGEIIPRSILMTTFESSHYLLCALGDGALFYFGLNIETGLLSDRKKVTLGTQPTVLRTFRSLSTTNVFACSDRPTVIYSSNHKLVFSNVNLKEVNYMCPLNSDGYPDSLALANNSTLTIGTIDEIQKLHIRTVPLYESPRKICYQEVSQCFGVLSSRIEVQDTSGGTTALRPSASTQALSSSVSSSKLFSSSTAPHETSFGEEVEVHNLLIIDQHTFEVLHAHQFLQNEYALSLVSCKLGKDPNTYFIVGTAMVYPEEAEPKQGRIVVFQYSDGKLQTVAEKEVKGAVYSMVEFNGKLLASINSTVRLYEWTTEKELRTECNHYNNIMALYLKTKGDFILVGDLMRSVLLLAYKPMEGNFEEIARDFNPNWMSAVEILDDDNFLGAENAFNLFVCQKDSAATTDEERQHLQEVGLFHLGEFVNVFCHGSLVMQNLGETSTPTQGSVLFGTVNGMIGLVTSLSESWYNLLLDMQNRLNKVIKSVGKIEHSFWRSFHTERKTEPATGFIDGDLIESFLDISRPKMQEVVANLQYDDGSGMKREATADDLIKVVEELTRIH
IKZF1, sequence (Q13422 whole entry): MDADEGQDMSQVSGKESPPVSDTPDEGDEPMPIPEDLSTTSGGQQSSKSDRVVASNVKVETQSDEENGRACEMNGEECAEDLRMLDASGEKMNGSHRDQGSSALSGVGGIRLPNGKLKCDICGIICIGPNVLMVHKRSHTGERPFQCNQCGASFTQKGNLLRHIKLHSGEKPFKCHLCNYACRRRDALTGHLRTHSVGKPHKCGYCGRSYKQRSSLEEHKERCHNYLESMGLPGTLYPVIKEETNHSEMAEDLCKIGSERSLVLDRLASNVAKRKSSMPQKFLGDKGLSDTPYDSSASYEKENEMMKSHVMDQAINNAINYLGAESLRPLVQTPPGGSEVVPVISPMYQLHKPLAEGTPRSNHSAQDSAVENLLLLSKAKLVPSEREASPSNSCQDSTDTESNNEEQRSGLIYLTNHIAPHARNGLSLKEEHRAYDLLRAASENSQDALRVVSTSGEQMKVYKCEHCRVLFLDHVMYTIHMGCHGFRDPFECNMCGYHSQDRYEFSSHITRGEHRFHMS
IKZF1, sequence (Q96SW2 whole entry): as the sequence (Q96SW2 whole entry) above
IKZF1, sequence (Q16531 whole entry partner): as the sequence (Q16531 whole entry partner) above
GSPT1, sequence (P15170 whole entry): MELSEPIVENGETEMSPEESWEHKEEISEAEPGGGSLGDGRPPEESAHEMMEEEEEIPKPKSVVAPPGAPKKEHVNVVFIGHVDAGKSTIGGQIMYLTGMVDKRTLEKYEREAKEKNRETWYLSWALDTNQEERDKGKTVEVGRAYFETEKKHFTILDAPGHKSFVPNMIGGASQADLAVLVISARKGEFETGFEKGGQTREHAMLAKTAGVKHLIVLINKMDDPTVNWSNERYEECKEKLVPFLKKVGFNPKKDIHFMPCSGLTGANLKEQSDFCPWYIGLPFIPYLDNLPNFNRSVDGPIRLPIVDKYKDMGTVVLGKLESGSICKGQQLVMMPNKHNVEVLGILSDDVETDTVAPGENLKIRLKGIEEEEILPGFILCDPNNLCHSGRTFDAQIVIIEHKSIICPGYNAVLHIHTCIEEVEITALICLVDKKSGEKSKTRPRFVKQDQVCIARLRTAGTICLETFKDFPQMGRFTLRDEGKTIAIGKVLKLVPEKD
GSPT1, sequence (Q96SW2 whole entry): as the sequence (Q96SW2 whole entry) above
GSPT1, sequence (Q16531 whole entry partner): as the sequence (Q16531 whole entry partner) above

SMILES: O=C1CCC(N2Cc3cc(CCN4CCN(C(c5ccccc5)c5ccccc5)CC4)ccc3C2=O)C(=O)N1 (stereo not shown) [GT-05696, 3-(5-(2-(4-benzhydrylpiperazin-1-yl)ethyl)-1-oxoisoindolin-2-yl)piperidine-2,6-dione]
- substrate protein remaining % IKZF3 [1]: A (A represents 0% ≤ substrate protein remaining % ≤ 50%)
- substrate protein remaining % IKZF1 [2]: A (A represents 0% ≤ substrate protein remaining % ≤ 50%)
- IC50 [3]: < 500 nM
- substrate protein remaining % GSPT1 [4]: A (A represents 0% ≤ substrate protein remaining % ≤ 50%)
- IC50 [5]: 50 to 100 nM

SMILES: O=C1CCC(N2C(=O)c3ccc(CN4CCC(N(c5ccccc5)c5ccccc5)CC4)cc3C2=O)C(=O)N1 (stereo not shown) [GT-05741, 2-(2,6-dioxopiperidin-3-yl)-5-((4-(diphenylamino)piperidin-1-yl)methyl) isoindoline-1,3-dione]
- substrate protein remaining % IKZF3 [1]: A (A represents 0% ≤ substrate protein remaining % ≤ 50%)
- substrate protein remaining % IKZF1 [2]: A (A represents 0% ≤ substrate protein remaining % ≤ 50%)
- substrate protein remaining % GSPT1 [4]: A (A represents 0% ≤ substrate protein remaining % ≤ 50%)
- IC50 [5]: 10 to 50 nM
- IC50 [6]: 100 to 500 nM
- IC50 [7]: 50 to 100 nM

SMILES: O=C1CCC(N2Cc3cc(CN4CC5CN(C(c6ccccc6)c6ccccc6)CC5C4)c(F)cc3C2=O)C(=O)N1 (stereo not shown) [GT-06051, 3-(5-((5-benzhydrylhexahydropyrrolo[3,4-c]pyrrol-2 (1H)-yl)methyl)-6-fluoro-1-oxoisoindolin-2-yl)piperidine-2,6-dione]
- substrate protein remaining % IKZF3 [1]: B (B represents substrate protein remaining % > 50%)
- substrate protein remaining % IKZF1 [2]: B (B represents substrate protein remaining % > 50%)
- IC50 [3]: 500 to 1000 nM
- substrate protein remaining % GSPT1 [4]: A (A represents 0% ≤ substrate protein remaining % ≤ 50%)
- IC50 [5]: 50 to 100 nM
- IC50 [7]: 100 to 500 nM

SMILES: O=C1CCC(N2Cc3cc(C(=O)N4CCN(C(c5ccccc5F)c5ccccc5F)CC4)ccc3C2=O)C(=O)N1 (stereo not shown) [GT-06104, 3-(5-(4-(bis(2-fluorophenyl)methyl)piperazine-1-carbonyl)-1-oxoisoindolin-2-yl)piperidine-2,6-dione]
- substrate protein remaining % IKZF3 [1]: B (B represents substrate protein remaining % > 50%)
- substrate protein remaining % IKZF1 [2]: A (A represents 0% ≤ substrate protein remaining % ≤ 50%)
- IC50 [3]: < 500 nM
- substrate protein remaining % GSPT1 [4]: A (A represents 0% ≤ substrate protein remaining % ≤ 50%)
- IC50 [5]: 10 to 50 nM
- IC50 [6]: 500 to 1000 nM
- IC50 [7]: 100 to 500 nM

SMILES: O=C1CCC(N2C(=O)c3ccc(CN4CCN(C(c5cccc(F)c5)c5cccc(F)c5)CC4)cc3C2=O)C(=O)N1 (stereo not shown) [GT-06118, 5-((4-(bis(3-fluorophenyl)methyl)piperazin-1-yl)methyl)-2-(2,6-dioxopiperidin-3-yl) isoindoline-1,3-dione]
- substrate protein remaining % IKZF3 [1]: A (A represents 0% ≤ substrate protein remaining % ≤ 50%)
- substrate protein remaining % IKZF1 [2]: A (A represents 0% ≤ substrate protein remaining % ≤ 50%)
- substrate protein remaining % GSPT1 [4]: A (A represents 0% ≤ substrate protein remaining % ≤ 50%)
- IC50 [5]: 50 to 100 nM
- IC50 [8]: 500 to 1000 nM
- IC50 [7]: 100 to 500 nM

SMILES: O=C1CCC(N2Cc3cc(CN4CCC(N(c5ccccc5)c5ccccc5)CC4)cc(F)c3C2=O)C(=O)N1 (stereo not shown) [GT-06133, 3-(5-((4-(diphenylamino)piperidin-1-yl)methyl)-7-fluoro-1-oxoisoindolin-2-yl)piperidine-2,6-dione]
- substrate protein remaining % IKZF3 [1]: B (B represents substrate protein remaining % > 50%)
- substrate protein remaining % IKZF1 [2]: B (B represents substrate protein remaining % > 50%)
- IC50 [3]: < 500 nM
- substrate protein remaining % GSPT1 [4]: A (A represents 0% ≤ substrate protein remaining % ≤ 50%)
- IC50 [5]: 10 to 50 nM
- IC50 [6]: 500 to 1000 nM
- IC50 [7]: 100 to 500 nM

SMILES: O=C1CCC(N2Cc3cc(C(=O)N4CCN(C(c5ccccc5)c5cccnc5)CC4)ccc3C2=O)C(=O)N1 (stereo not shown) [GT-06142, 3-(1-oxo-5-(4-(phenyl(pyridin-3-yl)methyl)piperazine-1-carbonyl)isoindolin-2-yl)piperidine-2,6-dione]
- substrate protein remaining % IKZF3 [1]: B (B represents substrate protein remaining % > 50%)
- substrate protein remaining % IKZF1 [2]: B (B represents substrate protein remaining % > 50%)
- IC50 [3]: 500 to 1000 nM
- substrate protein remaining % GSPT1 [4]: A (A represents 0% ≤ substrate protein remaining % ≤ 50%)

SMILES: O=C1CCC(N2Cc3cc(C(=O)N4CCN(C(c5cccc(F)c5)c5cccc(F)c5)CC4)cc(F)c3C2=O)C(=O)N1 (stereo not shown) [GT-06147, 3-(5-(4-(bis(3-fluorophenyl)methyl)piperazine-1-carbonyl)-7-fluoro-1-oxoisoindolin-2-yl)piperidine-2,6-dione]
- substrate protein remaining % IKZF3 [1]: B (B represents substrate protein remaining % > 50%)
- substrate protein remaining % IKZF1 [2]: B (B represents substrate protein remaining % > 50%)
- IC50 [3]: < 500 nM
- substrate protein remaining % GSPT1 [4]: A (A represents 0% ≤ substrate protein remaining % ≤ 50%)

SMILES: O=C1CCC(N2Cc3c(C(=O)N4CCN(C(c5cccc(F)c5)c5cccc(F)c5)CC4)cccc3C2=O)C(=O)N1 (stereo not shown) [GT-06148, 3-(4-(4-(bis(3-fluorophenyl)methyl)piperazine-1-carbonyl)-1-oxoisoindolin-2-yl)piperidine-2,6-dione]
- substrate protein remaining % IKZF3 [1]: B (B represents substrate protein remaining % > 50%)
- substrate protein remaining % IKZF1 [2]: B (B represents substrate protein remaining % > 50%)
- IC50 [3]: < 500 nM
- substrate protein remaining % GSPT1 [4]: A (A represents 0% ≤ substrate protein remaining % ≤ 50%)

SMILES: O=C1CCC(N2Cc3cc(CN4CCN(C(c5ccc(C(F)(F)F)cc5)c5ccc(C(F)(F)F)cc5)CC4)ccc3C2=O)C(=O)N1 (stereo not shown) [GT-06199, 3-(5-((4-(bis(4-(trifluoromethyl)phenyl)methyl)piperazin-1-yl)methyl)-1-oxoisoindolin-2-yl)piperidine-2,6-dione]
- substrate protein remaining % IKZF3 [1]: A (A represents 0% ≤ substrate protein remaining % ≤ 50%)
- substrate protein remaining % IKZF1 [2]: A (A represents 0% ≤ substrate protein remaining % ≤ 50%)
- substrate protein remaining % GSPT1 [4]: A (A represents 0% ≤ substrate protein remaining % ≤ 50%)
- IC50 [5]: 10 to 50 nM

SMILES: O=C1CCC(N2C(=O)c3ccc(C(=O)N4CCN(C(c5cccc(F)c5)c5cccc(F)c5)CC4)cc3C2=O)C(=O)N1 (stereo not shown) [GT-06206, 5-(4-(bis(3-fluorophenyl)methyl)piperazine-1-carbonyl)-2-(2,6-dioxopiperidin-3-yl) isoindoline-1,3-dione]
- substrate protein remaining % IKZF3 [1]: B (B represents substrate protein remaining % > 50%)
- substrate protein remaining % IKZF1 [2]: B (B represents substrate protein remaining % > 50%)
- IC50 [3]: 1000 to 1900 nM
- substrate protein remaining % GSPT1 [4]: A (A represents 0% ≤ substrate protein remaining % ≤ 50%)

SMILES: O=C1CCC(N2Cc3cc(CN4CCN(C(c5ccccc5)c5ccc(Br)cc5)CC4)ccc3C2=O)C(=O)N1 (stereo not shown) [GT-06640, 3-(5-((4-((4-bromophenyl) (phenyl)methyl)piperazin-1-yl)methyl)-1-oxoisoindolin-2-yl)piperidine-2,6-dione]
- substrate protein remaining % IKZF3 [1]: A (A represents 0% ≤ substrate protein remaining % ≤ 50%)
- substrate protein remaining % IKZF1 [2]: A (A represents 0% ≤ substrate protein remaining % ≤ 50%)
- IC50 [3]: 500 to 1000 nM
- substrate protein remaining % GSPT1 [4]: A (A represents 0% ≤ substrate protein remaining % ≤ 50%)
